The assay concerns the target T1, ABL1 T315I (Homo sapiens, UniProt P00519, T315I).
T1 construct: purchased Thermo Fisher Scientific (Life Technologies) SelectScreen
As to the kind of experiment: SelectScreen Z'LYTE. In kind it is biochemical. In outline:
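SelectScreen broad panel; activity (Z'LYTE, Adapta) plus binding formats. ATP: Km app for CSF1R Z'LYTE; 10 for CAMK1 Adapta. Readout = % per kinase.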

For the compound `CN(C(=O)CN1CCOCC1)c1ccc2sc3c(-c4cccc5c(=O)cc(N6CC7CCC(C6)O7)oc45)cccc3c2c1` [NU5455], the inhibition at 1 µM is -3%.

Values taken from paper PMC6934184, “Selective DNA-PKcs inhibition extends the therapeutic index of localized radiotherapy and chemotherapy” (The Journal of Clinical Investigation, 2019).
